Where no end group is shown, it is not given here.
Legend:
[1] = tested on: patients having non-insulin dependent diabetes (NIDDM); assay: Overnight subcutaneous infusion in NIDDM patients, blood glucose (Example 1); assay type: in vivo
NIDDM patients = assay: Infusion during meals in NIDDM patients, blood glucose (Example 2); assay type: in vivo; conditions: while infused, three hours during breakfast, lunch and dinner; compared with insulin injection; five NIDDM patients

“GLP-1(7-36) amide (HAEGTFTSDVSSYLEGQAAKEFIAWLVKGR-NH2; UniProt P01275 98-127, looked up, fragment) [truncated glucagon-like peptide 1, C-terminal amide]” was tested, and the metabolic control ([1]; compared with continuous insulin infusion, average blood glucose significantly lower at 23:00, 0:00 and 1:00) was “better than that achieved by insulin”, the “effect on blood glucose” value ([1]; subcutaneous infusion 1.2 pmol/kg/hr, ten hours during the night, five NIDDM patients) was “nearly normalized blood glucose” and the post-prandial glucose excursions (NIDDM patients) was “eliminated”.
